Results from patent US20240034649A1, “METHODS FOR ERADICATING BIOFILMS FROM PLUMBING SYSTEMS” (GORDON & ROSENBLATT, LLC, priority 2014, published 2024).

How the values were obtained:
[1] = tested on: Pseudomonas aeruginosa biofilms; test: Minimal Biofilm Eradication Concentration (MBEC) assay, Calgary biofilm device; type: cell-based; settings: 22-25° C
Legionella = settings: cited from earlier work
Biofilm = settings: shock dose 50-80 mg/mL over 8 hours, acidic conditions, outlets flushed approx. 1 hour; cited from earlier work
[2] = at STP; cited from earlier work

OCl [Bleach, sodium hypochlorite]
Log10 reduction ([1]; Bleach 3.15 ppm, pH 6.5, 30 min): 0.16 CFU/mm^2
Log10 reduction ([1]; Bleach 3.15 ppm, pH 7.5, 30 min): 0.96 CFU/mm^2
Log10 reduction ([1]; Bleach 6.31 ppm, pH 6.5, 30 min): Total inhibition
Log10 reduction ([1]; Bleach 6.31 ppm, pH 7.5, 30 min): 1.91 CFU/mm^2
Log10 reduction ([1]; Bleach 12.6 ppm, pH 6.5, 30 min): Total inhibition
Log10 reduction ([1]; Bleach 12.6 ppm, pH 7.5, 30 min): 3.03 CFU/mm^2
Log10 reduction ([1]; Bleach 50.5 ppm, pH 6.5, 30 min): Total inhibition
Log10 reduction ([1]; Bleach 50.5 ppm, pH 7.5, 30 min): Total inhibition

chlorine dioxide [CD]
time needed to achieve significant reduction in Legionella positivity (Legionella): > 12 months
bacteria recovered from showerheads after treatment (Biofilm): > 3000 cfu/ml
solubility in water relative to chlorine [2]: approximately 10 times
Log10 reduction ([1]; CD 3.12 ppm, pH 6.5, 30 min): 0.82 CFU/mm^2
Log10 reduction ([1]; CD 3.12 ppm, pH 7.5, 30 min): 1.63 CFU/mm^2
Log10 reduction ([1]; CD 6.25 ppm, pH 6.5, 30 min): 2.56 CFU/mm^2
Log10 reduction ([1]; CD 6.25 ppm, pH 7.5, 30 min): 2.38 CFU/mm^2
Log10 reduction ([1]; CD 12.5 ppm, pH 6.5, 30 min): 2.34 CFU/mm^2
Log10 reduction ([1]; CD 12.5 ppm, pH 7.5, 30 min): 2.49 CFU/mm^2
Log10 reduction ([1]; CD 50.0 ppm, pH 6.5, 30 min): Total inhibition
Log10 reduction ([1]; CD 50.0 ppm, pH 7.5, 30 min): total inhibition
